Source: PMC9586930, “Molecular insights into the distinct signaling duration for the peptide-induced PTH1R activation” (Nature Communications, 2022)
Substitutions are numbered along the chain they refer to.

Columns and labels:
Type in all cases: cell-based
Conditions in all cases: for ΔpEC50±SEM: relative to WT, n = 3 in triplicate; for ΔpEC50±SEM / Span±SEM: mean ± SEM; for Span±SEM: window between maximal response (Emax) and vehicle, n = 3
[1] = target: T1, PTH1R E180A mutant (Homo sapiens, UniProt Q03431, E180A); test: cAMP accumulation assay (GloSensor), PTH1R E180A
T1 construct: a flag-tag was fused to the N terminal of full-length PTH1R (WT or mutant); expressed in transfected cells; host or cells: HEK293T
T1 sequence (Q03431 27-593 E180A): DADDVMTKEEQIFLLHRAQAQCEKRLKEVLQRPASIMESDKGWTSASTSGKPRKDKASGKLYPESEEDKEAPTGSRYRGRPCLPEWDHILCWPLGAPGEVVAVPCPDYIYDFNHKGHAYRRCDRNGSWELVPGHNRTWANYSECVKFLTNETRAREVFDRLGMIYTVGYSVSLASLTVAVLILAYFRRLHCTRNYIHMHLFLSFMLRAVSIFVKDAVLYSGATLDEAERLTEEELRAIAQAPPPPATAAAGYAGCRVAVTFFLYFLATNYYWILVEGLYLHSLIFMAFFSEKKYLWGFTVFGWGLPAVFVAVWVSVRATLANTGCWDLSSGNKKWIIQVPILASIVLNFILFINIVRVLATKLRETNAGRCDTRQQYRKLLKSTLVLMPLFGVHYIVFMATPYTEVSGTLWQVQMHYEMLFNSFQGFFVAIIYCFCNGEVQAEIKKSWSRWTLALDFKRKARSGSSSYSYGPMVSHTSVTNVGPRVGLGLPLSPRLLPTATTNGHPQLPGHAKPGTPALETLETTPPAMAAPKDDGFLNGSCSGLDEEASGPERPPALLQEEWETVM
Method: (§1) Human embryonic kidney 293 T (HEK293T, ATCC: CRL-1573) cells were transfected with a plasmid mixture consisting of pcDNA3.1-flag-PTH1R (WT or mutants) and the cAMP biosensor GloSensor-22F (Promega) at a ratio of 2:1 (see Supplementary Table 7 for a list of primers used in this study). After 24 h, transfected cells were plated onto a 384-well plate, which was treated with cell adherent reagent (Applygen) in advance. After another 12 h, cells were treated with Hank’s balanced salt solution for starvation and then incubated in CO2-independent media containing 4% GloSensor cAMP Reagent (Promega) at a volume of 5 μl per well and incubated for 20 min at RT before measurements for baseline luminescence (Spark Multimode microplate reader, TECAN). Next, test ligands were added at different concentrations from 10^−6 to 10^−13 M before second measurement. Finally, data were normalized to 100% of the maximal PTH (1-34) response for WT PTH1R using a sigmoidal dose-response in GraphPad Prism.
(§2) Statistical analyses were performed on at least three individual datasets and analysed using GraphPad Prism software. Bars represent differences in the calculated agonist potency (pEC50) and maximum agonist response (Emax) for each mutant relative to the WT receptor. Data are mean± s.e.m. from at least three independent experiments, performed in triplicates. ns, not significant, ^nsP > 0.01; ^*P < 0.01; ^**P < 0.001; ^***P < 0.0001 (one-way analysis of variance (ANOVA) followed by Dunnett’s test, compared with the response of the WT). For dose-response experiments, data were normalized and analyzed using nonlinear curve fitting for the log (agonist) versus response (three parameters) curves.

[2] = target: T2, PTH1R K360A mutant (Homo sapiens, UniProt Q03431, K360A); test: cAMP accumulation assay (GloSensor), PTH1R K360A
T2 construct: a flag-tag was fused to the N terminal of full-length PTH1R (WT or mutant); expressed in transfected cells; host or cells: HEK293T
T2 sequence (Q03431 27-593 K360A): T1 sequence (Q03431 27-593 E180A) with A154E, K334A
Method: as §1, §2

[3] = target: T3, PTH1R T430A mutant (Homo sapiens, UniProt Q03431, T430A); test: cAMP accumulation assay (GloSensor), PTH1R T430A
T3 construct: a flag-tag was fused to the N terminal of full-length PTH1R (WT or mutant); expressed in transfected cells; host or cells: HEK293T
T3 sequence (Q03431 27-593 T430A): T1 sequence (Q03431 27-593 E180A) with A154E, T404A
Method: as §1, §2

| Substance | span (from the WT) ([1]; PTH1R E1801.32A, replicate 1) | ΔpEC50 (from the WT) ([1]; PTH1R E1801.32A, replicate 1) | span (from the WT) ([1]; PTH1R E1801.32A, replicate 2) | ΔpEC50 (from the WT) ([1]; PTH1R E1801.32A, replicate 2) | span (from the WT) ([1]; PTH1R E1801.32A, replicate 3) | ΔpEC50 (from the WT) ([1]; PTH1R E1801.32A, replicate 3) | ΔpEC50±SEM [1] | ΔpEC50 (from the WT) ([1]; replicate 1) | ΔpEC50 (from the WT) ([1]; replicate 2) | ΔpEC50 (from the WT) ([1]; replicate 3) | Span±SEM [1] | span (from the WT) ([2]; PTH1R K3605.36A, replicate 1) | ΔpEC50 (from the WT) ([2]; PTH1R K3605.36A, replicate 1) | span (from the WT) ([2]; PTH1R K3605.36A, replicate 2) | ΔpEC50 (from the WT) ([2]; PTH1R K3605.36A, replicate 2) | span (from the WT) ([2]; PTH1R K3605.36A, replicate 3) | ΔpEC50 (from the WT) ([2]; PTH1R K3605.36A, replicate 3) | ΔpEC50±SEM [2] | ΔpEC50 (from the WT) ([2]; replicate 1) | ΔpEC50 (from the WT) ([2]; replicate 2) | also measured |
| --- | --- | --- | --- | --- | --- | --- | --- | --- | --- | --- | --- | --- | --- | --- | --- | --- | --- | --- | --- | --- | --- |
| H-AVAEIQLMHQRAKWIQDARRRAFLHKLIAEIHTAEI-OH [LA-PTH, long-acting PTH analog, modified PTH/PTHrP hybrid] | 111 | -0.03 | 162.5 | 0.025 | 202.3 | 0.095 | 0.03±0.04 | -0.03 | 0.025 | 0.095 | 158.60±26.43 | 126.5 | 0.012 | 121.9 | 0.001 | 153.1 | -0.25 | -0.08±0.09 | 0.012 | 0.001 | ΔpEC50 (from the WT) ([2]; replicate 3): -0.25; Span±SEM [2]: 133.83±9.72; span (from the WT) ([3]; PTH1R T430ECL3A, replicate 1): 172.2; ΔpEC50 (from the WT) ([3]; PTH1R T430ECL3A, replicate 1): -1.056; span (from the WT) ([3]; PTH1R T430ECL3A, replicate 2): 195.6; ΔpEC50 (from the WT) ([3]; PTH1R T430ECL3A, replicate 2): -1.067; span (from the WT) ([3]; PTH1R T430ECL3A, replicate 3): 155.2; ΔpEC50 (from the WT) ([3]; PTH1R T430ECL3A, replicate 3): -1.166; ΔpEC50±SEM [3]: -1.10±0.03; ΔpEC50 (from the WT) ([3]; replicate 1): -1.056; ΔpEC50 (from the WT) ([3]; replicate 2): -1.067; ΔpEC50 (from the WT) ([3]; replicate 3): -1.166; Span±SEM [3]: 174.33±11.17 |
| H-AVSEHQLLHDKGKSIQDLRRRELLEKLL-{Aib}-KLHTA-NH2 [ABL, Abaloparatide, an analog of PTHrP, short-acting PTH1R agonist] | 108.1 | -0.513 | 146.6 | -0.61 | 148 | -0.513 | -0.55±0.03 | -0.513 | -0.61 | -0.513 | 134.23±13.07 | 125.1 | -1.039 | 150.8 | -1.216 | 115 | -1.137 | -1.13±0.05 | -1.039 | -1.216 | ΔpEC50 (from the WT) ([2]; replicate 3): -1.137; Span±SEM [2]: 130.30±10.66; span (from the WT) ([3]; PTH1R T430ECL3A, replicate 1): 230.5; ΔpEC50 (from the WT) ([3]; PTH1R T430ECL3A, replicate 1): -0.76; span (from the WT) ([3]; PTH1R T430ECL3A, replicate 2): 190.2; ΔpEC50 (from the WT) ([3]; PTH1R T430ECL3A, replicate 2): -0.775; span (from the WT) ([3]; PTH1R T430ECL3A, replicate 3): 191.7; ΔpEC50 (from the WT) ([3]; PTH1R T430ECL3A, replicate 3): -0.865; ΔpEC50±SEM [3]: -0.8±0.03; ΔpEC50 (from the WT) ([3]; replicate 1): -0.76; ΔpEC50 (from the WT) ([3]; replicate 2): -0.775; ΔpEC50 (from the WT) ([3]; replicate 3): -0.865; Span±SEM [3]: 204.13±13.19 |
| H-SVSEIQLMHNLGKHLNSMERVEWLRKKLQDVHNF-OH [PTH, Teriparatide, human PTH 1-34, long-acting peptide agonist of PTH1R] | 108.2 | -0.151 | 115.5 | -0.207 | 203.5 | 0.036 | -0.11±0.07 | -0.151 | -0.207 | 0.036 | 193.57±39.96 | 136.9 | 0.02 | 137.1 | -0.139 | 183.3 | -0.31 | -0.14±0.10 | 0.02 | -0.139 | ΔpEC50 (from the WT) ([2]; replicate 3): -0.31; Span±SEM [2]: 135.06±20.89; span (from the WT) ([3]; PTH1R T430ECL3A, replicate 1): 194; ΔpEC50 (from the WT) ([3]; PTH1R T430ECL3A, replicate 1): 0.303; span (from the WT) ([3]; PTH1R T430ECL3A, replicate 2): 170.6; ΔpEC50 (from the WT) ([3]; PTH1R T430ECL3A, replicate 2): 0.384; span (from the WT) ([3]; PTH1R T430ECL3A, replicate 3): 159.7; ΔpEC50 (from the WT) ([3]; PTH1R T430ECL3A, replicate 3): 0.286; ΔpEC50±SEM [3]: -0.32±0.03; ΔpEC50 (from the WT) ([3]; replicate 1): 0.303; ΔpEC50 (from the WT) ([3]; replicate 2): 0.384; ΔpEC50 (from the WT) ([3]; replicate 3): 0.286; Span±SEM [3]: 174.77±10.12 |
